The source made the active and inactive calls. The rule behind the calls is not given here.

The values that follow come from ChEMBL document CHEMBL4177616, “Potent anti-melanogenic activity and favorable toxicity profile of selected 4-phenyl hydroxycoumarins in the zebrafish model and the computational molecular modeling studies” (Bioorg Med Chem, 2017).

The species named for series [1] is Danio rerio. Briefly: Toxicity in wild type zebrafish embryos assessed as head malformation at 25 ug/ml treated for 96 hrs post fertilization starting from 6 hrs post fertilization by inverted microscopic analysis relative to control. Type of series: organism-based. Conditions: in vivo.
The species entered for series [2] is Danio rerio. Briefly: Toxicity in wild type zebrafish embryos assessed as blood circulation at 10 ug/ml treated for 96 hrs post fertilization starting from 6 hrs post fertilization by inverted microscopic analysis relative to control. Type of series: organism-based. Conditions: in vivo.
A further series has as its system Melanocyte. Briefly: Anti-melanogenic activity in wild type zebrafish embryo melanocytes assessed as decrease in pigmentation at 2.5 mg/ml treated for 72 hrs post fertilization starting from 6 to 24 hrs post fertilization. The class given is functional, cell-based. Conditions: Danio rerio.
The species entered for series [3] is Danio rerio. Briefly: Toxicity in wild type zebrafish embryos assessed as unhatched embryo at 5 ug/ml treated for 96 hrs post fertilization starting from 6 hrs post fertilization by inverted microscopic analysis relative to control. Type of series: organism-based. Conditions: in vivo.
The species entered for series [4] is Danio rerio. The experiment in a line: Toxicity in wild type zebrafish embryos assessed as otoliths at 20 ug/ml treated for 96 hrs post fertilization starting from 6 hrs post fertilization by inverted microscopic analysis relative to control. Conditions: in vivo. Type of series: organism-based.
For series [5], the species on record is Danio rerio. Briefly: Toxicity in wild type zebrafish embryos assessed as growth retardation at 20 ug/ml treated for 96 hrs post fertilization starting from 6 hrs post fertilization by inverted microscopic analysis relative to control. Type of series: organism-based. Conditions: in vivo.
In series [6] the test system is Danio rerio. Briefly: Toxicity in wild type zebrafish embryos assessed as pericardial edema at 5 ug/ml treated for 96 hrs post fertilization starting from 6 hrs post fertilization by inverted microscopic analysis relative to control. The class given is organism-based. Conditions: in vivo.
For series [7], the system named is Danio rerio. The experiment in a line: Toxicity in wild type zebrafish embryos assessed as pericardial edema at 10 ug/ml treated for 96 hrs post fertilization starting from 6 hrs post fertilization by inverted microscopic analysis relative to control. Conditions: in vivo. The class given is organism-based.
For series [8], the species on record is Danio rerio. Briefly: Toxicity in wild type zebrafish embryos assessed as normal embryo at 50 ug/ml treated for 96 hrs post fertilization starting from 6 hrs post fertilization by inverted microscopic analysis relative to control. The class given is organism-based. Conditions: in vivo.
Series [9] is filed under the species Danio rerio. The experiment in a line: Toxicity in wild type zebrafish embryos assessed as unhatched embryo at 20 ug/ml treated for 96 hrs post fertilization starting from 6 hrs post fertilization by inverted microscopic analysis relative to control. Type of series: organism-based. Conditions: in vivo.
For series [10], the species on record is Danio rerio. The experiment in a line: Toxicity in wild type zebrafish embryos assessed as otoliths at 25 ug/ml treated for 96 hrs post fertilization starting from 6 hrs post fertilization by inverted microscopic analysis relative to control. The class given is organism-based. Conditions: in vivo.
The species entered for series [11] is Danio rerio. The experiment in a line: Toxicity in wild type zebrafish embryos assessed as eyes at 5 ug/ml treated for 96 hrs post fertilization starting from 6 hrs post fertilization by inverted microscopic analysis relative to control. The class given is organism-based. Conditions: in vivo.
The species entered for series [12] is Danio rerio. The experiment in a line: Anti-melanogenic activity in wild type zebrafish 24 hrs post fertilization embryos assessed as decrease in body pigmentation at 5 to 25 ug/ml after 48 hrs. The class given is functional, organism-based.
The species named for series [13] is Danio rerio. The experiment in a line: Toxicity in wild type zebrafish embryos assessed as otoliths at 10 ug/ml treated for 96 hrs post fertilization starting from 6 hrs post fertilization by inverted microscopic analysis relative to control. The class given is organism-based. Conditions: in vivo.
For series [14], the species on record is Danio rerio. Briefly: Toxicity in wild type zebrafish embryos assessed as growth retardation at 10 ug/ml treated for 96 hrs post fertilization starting from 6 hrs post fertilization by inverted microscopic analysis relative to control. Type of series: organism-based. Conditions: in vivo.
The species entered for series [15] is Danio rerio. The experiment in a line: Toxicity in wild type zebrafish embryos assessed as otoliths at 5 ug/ml treated for 96 hrs post fertilization starting from 6 hrs post fertilization by inverted microscopic analysis relative to control. Conditions: in vivo. Type of series: organism-based.
Series [16] can be described thus: Toxicity in wild type zebrafish embryos assessed as dead embryo at 25 ug/ml treated for 96 hrs post fertilization starting from 6 hrs post fertilization by inverted microscopic analysis relative to control. The class given is organism-based, Danio rerio. Conditions: in vivo, read-out: Activity.
The species entered for series [17] is Danio rerio. Briefly: Toxicity in wild type zebrafish embryos assessed as eyes at 10 ug/ml treated for 96 hrs post fertilization starting from 6 hrs post fertilization by inverted microscopic analysis relative to control. Type of series: organism-based. Conditions: in vivo.
For a further series, the target named is T1, Tyrosinase (Danio rerio, UniProt A0A8M1PAD4).
T1 sequence (A0A8M1PAD4 whole entry): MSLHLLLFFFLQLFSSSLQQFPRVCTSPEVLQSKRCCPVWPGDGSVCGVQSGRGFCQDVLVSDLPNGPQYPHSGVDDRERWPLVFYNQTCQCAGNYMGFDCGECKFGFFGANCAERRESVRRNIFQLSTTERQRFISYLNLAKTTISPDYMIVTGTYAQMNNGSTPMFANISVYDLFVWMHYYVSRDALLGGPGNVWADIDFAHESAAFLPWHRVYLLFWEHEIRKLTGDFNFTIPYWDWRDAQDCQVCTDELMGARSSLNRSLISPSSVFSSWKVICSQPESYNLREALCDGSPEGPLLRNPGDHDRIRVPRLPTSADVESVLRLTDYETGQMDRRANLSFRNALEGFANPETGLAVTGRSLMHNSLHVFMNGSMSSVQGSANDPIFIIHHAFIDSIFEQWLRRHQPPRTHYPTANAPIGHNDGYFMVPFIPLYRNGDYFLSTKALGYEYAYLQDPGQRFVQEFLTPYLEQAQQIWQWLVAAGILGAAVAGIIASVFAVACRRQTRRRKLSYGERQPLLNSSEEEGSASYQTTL
The experiment in a line: Inhibition of zebrafish embryo tyrosinase assessed as residual activity after 48 hrs.

The species named for series [18] is Danio rerio. The experiment in a line: Toxicity in wild type zebrafish embryos assessed as head malformation at 5 ug/ml treated for 96 hrs post fertilization starting from 6 hrs post fertilization by inverted microscopic analysis relative to control. Type of series: organism-based. Conditions: in vivo.
For series [19], the species on record is Danio rerio. The experiment in a line: Toxicity in wild type zebrafish embryos assessed as blood circulation at 25 ug/ml treated for 96 hrs post fertilization starting from 6 hrs post fertilization by inverted microscopic analysis relative to control. Conditions: in vivo. The class given is organism-based.
Series [20] can be described thus: Toxicity in wild type zebrafish embryos assessed as dead embryo at 50 ug/ml treated for 96 hrs post fertilization starting from 6 hrs post fertilization by inverted microscopic analysis relative to control. The class given is organism-based, Danio rerio. Conditions: in vivo, read-out: Activity.
The species named for series [21] is Danio rerio. The experiment in a line: Toxicity in wild type zebrafish embryos assessed as growth retardation at 5 ug/ml treated for 96 hrs post fertilization starting from 6 hrs post fertilization by inverted microscopic analysis relative to control. Type of series: organism-based. Conditions: in vivo.
Series [22] relates to Danio rerio. The experiment in a line: Toxicity in wild type zebrafish embryos assessed as pericardial edema at 25 ug/ml treated for 96 hrs post fertilization starting from 6 hrs post fertilization by inverted microscopic analysis relative to control. Conditions: in vivo. The class given is organism-based.
The target of another series is T2, Tyrosinase (Danio rerio) (UniProt A0A8M1PAD4).
T2 sequence (whole entry): T1 sequence (A0A8M1PAD4 whole entry)
Briefly: Inhibition of zebrafish embryo tyrosinase assessed as residual activity at 15 ug/ml after 48 hrs relative to control.

The species entered for series [23] is Danio rerio. Briefly: Toxicity in wild type zebrafish embryos assessed as normal embryo at 5 ug/ml treated for 96 hrs post fertilization starting from 6 hrs post fertilization by inverted microscopic analysis relative to control. The class given is organism-based. Conditions: in vivo.
Series [24] is filed under the species Danio rerio. The experiment in a line: Toxicity in wild type zebrafish embryos assessed as skeletal deformities at 10 ug/ml treated for 96 hrs post fertilization starting from 6 hrs post fertilization by inverted microscopic analysis relative to control. The class given is organism-based. Conditions: in vivo.
Series [25] is filed under the species Danio rerio. Briefly: Toxicity in wild type zebrafish embryos assessed as teratogenic embryo at 25 ug/ml treated for 96 hrs post fertilization starting from 6 hrs post fertilization by inverted microscopic analysis relative to control. Conditions: in vivo. Type of series: organism-based.
The species named for series [26] is Danio rerio. Briefly: Toxicity in wild type zebrafish embryos assessed as notochord at 50 ug/ml treated for 96 hrs post fertilization starting from 6 hrs post fertilization by inverted microscopic analysis relative to control. The class given is organism-based. Conditions: in vivo.
The species named for series [27] is Danio rerio. Briefly: Toxicity in wild type zebrafish embryos assessed as heart beat at 20 ug/ml treated for 96 hrs post fertilization starting from 6 hrs post fertilization by inverted microscopic analysis relative to control. The class given is organism-based. Conditions: in vivo.
The species named for series [28] is Danio rerio. Briefly: Toxicity in wild type zebrafish embryos assessed as normal embryo at 25 ug/ml treated for 96 hrs post fertilization starting from 6 hrs post fertilization by inverted microscopic analysis relative to control. The class given is organism-based. Conditions: in vivo.

On to `O=c1cc(-c2ccccc2)c2c(O)cc(O)cc2o1`, for which the Activity in the series filed under Danio rerio [1], in the series listed under Danio rerio [2], in the series listed under Danio rerio [3], in the series filed under Danio rerio [4], in the series filed under Danio rerio [5] and with Danio rerio [6] was 0% in each case. Besides, the Activity in the series with Danio rerio [7] is 0%; in the series filed under Danio rerio [8], 75%; in the series filed under Danio rerio [9], 0%; in the series filed under Danio rerio [10], 0%; in the series filed under Danio rerio [11], 0%; in the series filed under Danio rerio [13], 0%. Also, the Activity in the series listed under Danio rerio [14], in the series listed under Danio rerio [15], in the series listed under Danio rerio [17], in the series filed under Danio rerio [18], in the series listed under Danio rerio [19] and in the series filed under Danio rerio [21] was 0% in each case. For the same compound, the Activity in the series with Danio rerio [22] was 0%; on Tyrosinase (Danio rerio), 76%; in the series filed under Danio rerio [23], 100%; in the series listed under Danio rerio [24], 0%; in the series listed under Danio rerio [25], 0%; in the series filed under Danio rerio [26], 0%. In addition, the Activity in the series filed under Danio rerio [27] is listed as 0%; in the series listed under Danio rerio [28], 100%. Besides, the outcome with Melanocyte and in the series filed under Danio rerio [12] was Active. Moreover, in [16], the mortality at 25 ug/ml worked out at 0%. Moreover, the IC50 (usually the concentration that inhibits the measured activity by half) at Tyrosinase came to 90.9 µM. Also, the mortality at 50 ug/ml in [20] turned out to be 0%.

Take `Oc1ccc(O)cc1` [HYDROQUINONE]: the Activity in the series listed under Danio rerio [2] worked out at 90%; in the series listed under Danio rerio [3] it was 0%; in the series filed under Danio rerio [4], 100%; in the series listed under Danio rerio [5], 100%; with Danio rerio [6], 71.7%; in the series with Danio rerio [7], 100%. For the same compound, the Activity in the series listed under Danio rerio [8] is listed as 0%; in the series filed under Danio rerio [9], 100%; in the series listed under Danio rerio [10], 100%; in the series listed under Danio rerio [11], 0%; in the series filed under Danio rerio [13] it was 80%; in the series listed under Danio rerio [14] it was 80%. Also, the Activity is given as 0% in the series filed under Danio rerio [15]; 80% in the series filed under Danio rerio [17]; 0% in the series filed under Danio rerio [18]; 100% in the series listed under Danio rerio [19]; 0% in the series listed under Danio rerio [21]; 100% with Danio rerio [22]. Also, the Activity in the series filed under Danio rerio [23] is given as 0%; in the series filed under Danio rerio [24], 90%; in the series filed under Danio rerio [25], 6.7%; in the series filed under Danio rerio [27], 100%; in the series filed under Danio rerio [28], 0%. The result in the series filed under Danio rerio [12] was Active. In series [16], the mortality at 25 ug/ml was 93.3%. In addition, the mortality at 50 ug/ml in series [20] was 100%.

As for `O=c1cc(-c2ccccc2)c2ccc(O)cc2o1`, the Activity in the series filed under Danio rerio [1], in the series filed under Danio rerio [2], in the series filed under Danio rerio [3], in the series filed under Danio rerio [4], in the series listed under Danio rerio [5] and in the series with Danio rerio [6] was 0% each time. Also, the Activity is recorded as 0% with Danio rerio [7]; 100% in the series listed under Danio rerio [8]; 0% in the series filed under Danio rerio [9]; 0% in the series listed under Danio rerio [10]; 0% in the series filed under Danio rerio [11]; 0% in the series listed under Danio rerio [13]. Also, the Activity in the series filed under Danio rerio [14], in the series filed under Danio rerio [15], in the series filed under Danio rerio [17], in the series filed under Danio rerio [18], in the series filed under Danio rerio [19] and in the series listed under Danio rerio [21] was 0% each time. Further, the Activity in the series with Danio rerio [22] is 0%; at Tyrosinase (Danio rerio), 92%; in the series filed under Danio rerio [23], 100%; in the series listed under Danio rerio [24], 0%; in the series filed under Danio rerio [25] it was 0%; in the series listed under Danio rerio [26], 0%. Further, the Activity in the series listed under Danio rerio [27] was found to be 0%; in the series filed under Danio rerio [28], 100%. The outcome in the series on Melanocyte and in the series filed under Danio rerio [12] was Active. In addition, the mortality at 25 ug/ml in series [16] is 0%. For the same compound, the IC50 on Tyrosinase worked out at 205 µM. Also, the mortality at 50 ug/ml in series [20] amounted to 0%.

Take `O=c1cc(CO)occ1O` [KOJIC ACID]: the Activity was found to be 0% in the series filed under Danio rerio [1]; 0% in the series listed under Danio rerio [10]; 0% in the series filed under Danio rerio [19]; 0% with Danio rerio [22]; 0% in the series listed under Danio rerio [25]; 100% in the series filed under Danio rerio [28]. Further, the outcome with Melanocyte was Active. For the same compound, the mortality at 25 ug/ml in [16] was 0%.
